Consider 24 molecules from ChEMBL document CHEMBL1138507, “Synthesis, activity, and pharmacophore development for isatin-beta-thiosemicarbazones with selective activity toward multidrug-resistant cells” (J Med Chem, 2009).

The nature of assay [1]: cells. The conditions noted are these: Homo sapiens, KB 3-1, 72 h.
Description: Cytotoxicity against human P-gp-negative KB-3-1 cells after 72 hrs by MTT assay
A short description of assay [2]: cells. The conditions noted are these: Homo sapiens, KB-V1, 72 h.
Description: Cytotoxicity against human P-glycoprotein-expressing KBV1 cells after 72 hrs by MTT assay
Assay [3] concerns the target T1, Receptor-type tyrosine-protein kinase FLT3 (Homo sapiens, UniProt P36888).
T1 sequence (P36888 whole entry): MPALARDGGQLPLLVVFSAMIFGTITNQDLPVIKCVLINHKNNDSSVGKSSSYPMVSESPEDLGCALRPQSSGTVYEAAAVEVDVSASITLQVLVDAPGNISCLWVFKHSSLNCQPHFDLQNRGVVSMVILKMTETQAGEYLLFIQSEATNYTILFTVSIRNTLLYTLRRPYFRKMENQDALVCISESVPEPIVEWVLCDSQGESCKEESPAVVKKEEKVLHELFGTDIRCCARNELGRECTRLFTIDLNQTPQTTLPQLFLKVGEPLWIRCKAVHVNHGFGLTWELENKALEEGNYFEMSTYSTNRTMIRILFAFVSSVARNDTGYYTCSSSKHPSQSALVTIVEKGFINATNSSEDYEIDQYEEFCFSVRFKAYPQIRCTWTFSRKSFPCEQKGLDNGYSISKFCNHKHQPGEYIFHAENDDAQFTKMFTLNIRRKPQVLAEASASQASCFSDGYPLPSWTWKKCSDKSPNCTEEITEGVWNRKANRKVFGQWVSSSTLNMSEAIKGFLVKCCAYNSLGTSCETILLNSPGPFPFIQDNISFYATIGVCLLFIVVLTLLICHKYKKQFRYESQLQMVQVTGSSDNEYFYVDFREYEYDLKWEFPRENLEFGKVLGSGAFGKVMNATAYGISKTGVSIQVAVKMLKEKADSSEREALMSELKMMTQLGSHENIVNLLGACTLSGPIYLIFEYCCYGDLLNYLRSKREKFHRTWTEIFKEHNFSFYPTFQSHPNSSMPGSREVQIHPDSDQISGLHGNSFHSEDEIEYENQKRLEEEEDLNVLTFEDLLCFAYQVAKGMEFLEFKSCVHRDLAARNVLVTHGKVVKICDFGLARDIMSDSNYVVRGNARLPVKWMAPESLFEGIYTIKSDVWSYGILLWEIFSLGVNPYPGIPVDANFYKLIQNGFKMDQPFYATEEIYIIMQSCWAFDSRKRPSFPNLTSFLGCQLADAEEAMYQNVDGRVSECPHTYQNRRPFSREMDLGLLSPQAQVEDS

In assay [4] the target is Ribosomal protein S6 kinase alpha-1 (Homo sapiens, UniProt Q15418).
Chain of Ribosomal protein S6 kinase alpha-1 (Q15418 whole entry): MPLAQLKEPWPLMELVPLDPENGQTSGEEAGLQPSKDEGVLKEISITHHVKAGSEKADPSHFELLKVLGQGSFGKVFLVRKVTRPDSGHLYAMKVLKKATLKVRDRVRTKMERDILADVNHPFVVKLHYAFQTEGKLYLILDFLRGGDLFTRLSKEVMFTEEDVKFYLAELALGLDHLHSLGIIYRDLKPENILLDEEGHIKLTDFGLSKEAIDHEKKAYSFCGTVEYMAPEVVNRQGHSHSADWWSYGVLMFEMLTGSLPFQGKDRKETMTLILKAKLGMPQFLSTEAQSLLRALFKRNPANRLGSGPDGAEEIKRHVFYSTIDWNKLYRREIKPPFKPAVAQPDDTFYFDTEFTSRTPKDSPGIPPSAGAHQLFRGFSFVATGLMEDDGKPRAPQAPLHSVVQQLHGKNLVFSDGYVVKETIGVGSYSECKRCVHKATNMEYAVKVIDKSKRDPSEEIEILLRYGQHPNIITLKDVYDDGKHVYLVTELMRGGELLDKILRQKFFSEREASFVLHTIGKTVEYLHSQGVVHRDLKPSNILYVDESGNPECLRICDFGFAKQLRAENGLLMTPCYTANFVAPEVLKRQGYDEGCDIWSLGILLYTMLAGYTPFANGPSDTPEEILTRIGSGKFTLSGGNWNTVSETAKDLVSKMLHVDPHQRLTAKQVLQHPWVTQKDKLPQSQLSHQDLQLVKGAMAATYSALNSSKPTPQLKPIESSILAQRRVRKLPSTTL
For assay [5], the target named is T2, Serine/threonine-protein kinase Chk1 (Homo sapiens, UniProt O14757).
T2 sequence (O14757 whole entry): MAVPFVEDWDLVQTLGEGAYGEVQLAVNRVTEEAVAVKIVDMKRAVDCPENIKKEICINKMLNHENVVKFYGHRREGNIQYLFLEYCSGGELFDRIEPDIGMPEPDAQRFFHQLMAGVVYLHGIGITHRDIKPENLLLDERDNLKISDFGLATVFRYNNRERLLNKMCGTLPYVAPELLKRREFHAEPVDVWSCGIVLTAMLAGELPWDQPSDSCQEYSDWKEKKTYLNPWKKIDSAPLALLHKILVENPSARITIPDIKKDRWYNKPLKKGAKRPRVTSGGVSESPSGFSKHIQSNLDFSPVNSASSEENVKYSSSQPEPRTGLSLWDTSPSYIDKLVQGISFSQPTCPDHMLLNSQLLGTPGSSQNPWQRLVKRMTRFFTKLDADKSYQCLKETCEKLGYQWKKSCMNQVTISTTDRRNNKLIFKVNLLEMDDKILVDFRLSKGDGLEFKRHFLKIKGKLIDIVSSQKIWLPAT

For assay [6], the target named is Serine/threonine-protein kinase PLK2 (Homo sapiens, UniProt Q9NYY3).
Chain of Serine/threonine-protein kinase PLK2 (Q9NYY3 whole entry): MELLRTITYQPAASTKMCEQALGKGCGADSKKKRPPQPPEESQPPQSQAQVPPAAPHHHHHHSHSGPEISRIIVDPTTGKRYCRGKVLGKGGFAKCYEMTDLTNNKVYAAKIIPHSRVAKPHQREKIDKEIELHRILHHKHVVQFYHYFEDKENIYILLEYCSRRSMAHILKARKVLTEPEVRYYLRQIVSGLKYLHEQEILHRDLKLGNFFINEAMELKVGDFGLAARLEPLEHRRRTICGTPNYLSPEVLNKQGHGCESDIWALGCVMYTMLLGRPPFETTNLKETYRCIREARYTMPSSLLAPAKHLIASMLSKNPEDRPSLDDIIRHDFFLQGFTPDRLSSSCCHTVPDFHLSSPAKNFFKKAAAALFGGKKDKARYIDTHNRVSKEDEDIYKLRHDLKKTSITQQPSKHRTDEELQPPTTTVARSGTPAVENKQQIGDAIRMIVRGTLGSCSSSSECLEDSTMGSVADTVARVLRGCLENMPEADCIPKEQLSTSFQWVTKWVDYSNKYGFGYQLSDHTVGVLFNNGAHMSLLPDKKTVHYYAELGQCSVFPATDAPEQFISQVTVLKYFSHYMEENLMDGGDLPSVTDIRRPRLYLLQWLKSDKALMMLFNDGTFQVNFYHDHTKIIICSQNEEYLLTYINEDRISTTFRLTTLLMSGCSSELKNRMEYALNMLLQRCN
Assay [7] has as its target Tyrosine-protein kinase ABL1 (Homo sapiens, UniProt P00519). The experiment in a line: Inhibition of ABL1.
Assay [8] deals with Serine/threonine-protein kinase pim-1 (Homo sapiens, UniProt P11309).
Chain of Serine/threonine-protein kinase pim-1 (P11309 whole entry): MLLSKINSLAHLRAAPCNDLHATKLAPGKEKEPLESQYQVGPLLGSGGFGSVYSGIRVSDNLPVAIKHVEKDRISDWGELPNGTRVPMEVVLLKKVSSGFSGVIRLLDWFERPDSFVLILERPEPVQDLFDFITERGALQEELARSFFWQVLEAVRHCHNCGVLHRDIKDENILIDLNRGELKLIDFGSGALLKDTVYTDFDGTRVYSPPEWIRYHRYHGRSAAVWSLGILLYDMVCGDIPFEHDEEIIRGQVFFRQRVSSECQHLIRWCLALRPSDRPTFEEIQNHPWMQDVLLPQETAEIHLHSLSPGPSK
The target of assay [9] is Rho-associated protein kinase 1 (Homo sapiens, UniProt Q13464). Nature of the assay: Inhibition of ROCK1.
Chain of Rho-associated protein kinase 1 (Q13464 whole entry): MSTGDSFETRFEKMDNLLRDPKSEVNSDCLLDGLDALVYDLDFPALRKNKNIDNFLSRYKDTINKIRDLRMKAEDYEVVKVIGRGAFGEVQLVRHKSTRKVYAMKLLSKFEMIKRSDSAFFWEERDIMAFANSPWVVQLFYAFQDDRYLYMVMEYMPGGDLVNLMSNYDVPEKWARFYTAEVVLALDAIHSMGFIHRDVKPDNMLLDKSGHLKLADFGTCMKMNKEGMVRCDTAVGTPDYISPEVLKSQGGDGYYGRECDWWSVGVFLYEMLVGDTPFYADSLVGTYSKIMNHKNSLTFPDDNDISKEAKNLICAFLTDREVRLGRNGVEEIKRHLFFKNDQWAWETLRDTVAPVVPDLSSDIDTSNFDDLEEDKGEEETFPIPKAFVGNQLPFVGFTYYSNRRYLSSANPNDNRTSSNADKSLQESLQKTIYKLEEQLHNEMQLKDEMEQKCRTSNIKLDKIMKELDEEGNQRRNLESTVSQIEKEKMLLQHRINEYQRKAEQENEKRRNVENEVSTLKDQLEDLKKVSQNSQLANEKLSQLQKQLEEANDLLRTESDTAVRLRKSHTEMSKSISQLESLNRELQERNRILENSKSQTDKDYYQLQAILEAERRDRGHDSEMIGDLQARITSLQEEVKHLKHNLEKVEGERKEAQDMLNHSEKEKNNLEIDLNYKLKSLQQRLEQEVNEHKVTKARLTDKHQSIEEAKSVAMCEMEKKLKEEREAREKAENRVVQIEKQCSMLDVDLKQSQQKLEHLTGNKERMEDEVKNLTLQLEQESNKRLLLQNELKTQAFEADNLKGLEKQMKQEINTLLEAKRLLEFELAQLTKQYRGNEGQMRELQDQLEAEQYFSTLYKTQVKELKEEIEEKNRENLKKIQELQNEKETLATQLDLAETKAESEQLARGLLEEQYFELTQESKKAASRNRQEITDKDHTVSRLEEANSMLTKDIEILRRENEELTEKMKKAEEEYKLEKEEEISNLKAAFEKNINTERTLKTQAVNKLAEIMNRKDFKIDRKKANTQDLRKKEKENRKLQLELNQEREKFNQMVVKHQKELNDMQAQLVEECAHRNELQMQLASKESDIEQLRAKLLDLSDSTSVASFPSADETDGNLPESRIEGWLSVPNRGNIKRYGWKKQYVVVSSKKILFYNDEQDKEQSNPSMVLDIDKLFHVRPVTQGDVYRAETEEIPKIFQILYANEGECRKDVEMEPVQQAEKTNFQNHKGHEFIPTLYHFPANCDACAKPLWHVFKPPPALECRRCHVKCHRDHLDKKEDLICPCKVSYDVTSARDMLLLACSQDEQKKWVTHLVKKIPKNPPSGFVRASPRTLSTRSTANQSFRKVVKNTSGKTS
Assay [10] deals with Protein kinase C alpha type (Homo sapiens, UniProt P17252). The experiment in a line: Inhibition of PKCalpha.
In assay [11] the target is Cyclin-dependent kinase 2 (Homo sapiens, UniProt P24941). Nature of the assay: Inhibition of CDK2/cyclinA.

Chain of Tyrosine-protein kinase ABL1 (P00519 whole entry): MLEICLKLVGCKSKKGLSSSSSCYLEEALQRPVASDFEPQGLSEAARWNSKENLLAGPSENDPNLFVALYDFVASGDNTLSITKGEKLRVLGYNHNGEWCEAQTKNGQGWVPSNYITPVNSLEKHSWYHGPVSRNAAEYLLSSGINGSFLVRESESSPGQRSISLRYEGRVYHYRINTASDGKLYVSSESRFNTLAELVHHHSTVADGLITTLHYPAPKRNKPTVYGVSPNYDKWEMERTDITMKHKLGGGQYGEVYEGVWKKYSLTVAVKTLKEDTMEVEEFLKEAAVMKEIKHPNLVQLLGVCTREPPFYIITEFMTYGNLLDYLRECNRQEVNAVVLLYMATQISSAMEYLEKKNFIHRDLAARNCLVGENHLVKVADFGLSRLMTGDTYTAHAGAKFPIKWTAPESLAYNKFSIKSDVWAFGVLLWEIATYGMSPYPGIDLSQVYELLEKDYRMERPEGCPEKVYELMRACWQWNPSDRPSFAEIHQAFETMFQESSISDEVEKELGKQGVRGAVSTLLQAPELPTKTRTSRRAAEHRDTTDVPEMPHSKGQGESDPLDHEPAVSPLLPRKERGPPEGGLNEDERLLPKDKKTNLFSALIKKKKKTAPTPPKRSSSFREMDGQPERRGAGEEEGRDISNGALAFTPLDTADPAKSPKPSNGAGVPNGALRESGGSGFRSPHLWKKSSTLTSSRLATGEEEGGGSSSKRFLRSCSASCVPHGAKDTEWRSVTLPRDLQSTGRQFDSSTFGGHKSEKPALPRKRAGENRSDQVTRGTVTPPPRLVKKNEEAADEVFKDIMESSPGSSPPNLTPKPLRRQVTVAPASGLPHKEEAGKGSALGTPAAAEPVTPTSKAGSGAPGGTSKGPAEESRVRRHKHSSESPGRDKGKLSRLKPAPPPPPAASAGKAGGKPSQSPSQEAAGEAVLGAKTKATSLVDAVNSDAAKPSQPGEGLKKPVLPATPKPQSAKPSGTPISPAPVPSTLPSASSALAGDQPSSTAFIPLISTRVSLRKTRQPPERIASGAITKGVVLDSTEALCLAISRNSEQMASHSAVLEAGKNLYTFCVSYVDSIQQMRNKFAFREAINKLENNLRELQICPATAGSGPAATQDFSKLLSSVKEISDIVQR

In the case of `COc1ccc(NC(=O)N/N=C2\C(=O)Nc3ccccc32)cc1`, the IC50 in assay [1] is 27.7 µM; in assay [2], > 50 µM.

With `O=C1Nc2ccc(Br)cc2/C1=N/NC(=S)Nc1ccc(F)cc1`, the IC50 in assay [1] was 13.1 µM; in assay [1] (read-out: pIC50 (converted)) it was 13.2 µM; in assay [2], 5.8 µM; in [2] (read-out: pIC50 (converted)) it was 5.75 µM.

Turning to `COc1ccc(NC(=S)N/N=C/c2ccccn2)cc1`, the IC50 in assay [1] is 3.4 µM; in assay [1] (read-out: pIC50 (converted)) it was 3.39 µM; in [2], 2.4 µM; in [2] (read-out: pIC50 (converted)) it was 2.4 µM.

With `C=CCNC(=S)N/N=C1\C(=O)Nc2ccccc21`, the IC50 in assay [1] was 26.1 µM; in assay [1] (read-out: pIC50 (converted)), 26.3 µM; in assay [2], 20.7 µM; in assay [2] (read-out: pIC50 (converted)) it was 20.9 µM.

As to `O=C1Nc2ccc([N+](=O)[O-])cc2/C1=N/NC(=S)Nc1ccccc1`, the IC50 in [1] was 14.5 µM; in assay [1] (read-out: pIC50 (converted)), 14.5 µM; in [2], 10.2 µM; in [2] (read-out: pIC50 (converted)), 10.2 µM.

In the case of `COc1ccc(NC(=S)NN=C2Cc3ccccc3C2)cc1`, the IC50 in assay [1] and in assay [2] was > 50 µM throughout.

`COc1ccc(NC(=S)N/N=C2\C(=O)Nc3ccc([N+](=O)[O-])cc32)cc1`: the IC50 in [1] is 26.3 µM; in assay [1] (read-out: pIC50 (converted)), 26.3 µM; in assay [2] it was 6.7 µM; in assay [2] (read-out: pIC50 (converted)), 6.76 µM.

In the case of `CCOC(=O)C(=CNC(=S)N/N=C1\C(=O)Nc2ccccc21)C(=O)OCC`, the IC50 in assay [1] and in assay [2] was > 50 µM each time.

Consider `Cc1cnc(/C=N/NC(N)=S)c2cccc(N)c12`, for which the IC50 is 1.9 µM in [1], 1.91 µM in [1] (read-out: pIC50 (converted)), 2.1 µM in assay [2] and 2.09 µM in assay [2] (read-out: pIC50 (converted)).

For the molecule `O=C1Nc2ccc(Br)cc2/C1=N/NC(=S)Nc1ccc([N+](=O)[O-])cc1`, the IC50 was 28.4 µM in [1], 28.2 µM in [1] (read-out: pIC50 (converted)), 4 µM in assay [2] and 3.98 µM in assay [2] (read-out: pIC50 (converted)).

`CC(=O)Nc1ccc(/C=N/NC(N)=S)cc1` [AMITHIOZONE]: the IC50 in assay [1] and in assay [2] was > 50 µM each time.

For the molecule `COc1ccc(NC(=S)N/N=C2\C(=O)Nc3ccc(F)cc32)cc1`, the IC50 in assay [1] was 39.3 µM; in assay [1] (read-out: pIC50 (converted)) it was 38.9 µM; in assay [2], 5.2 µM; in assay [2] (read-out: pIC50 (converted)) it was 5.25 µM.

On to `O=C1Nc2ccccc2C1=O` [ISATIN], for which the IC50 in [1] and in [2] was > 50 µM throughout.

With `COc1ccc(NC(=S)NNC2=c3ccccc3=NC2=O)cc1`, the IC50 was > 50 µM in assay [3]; 14.2 µM in [1]; 14.1 µM in [1] (read-out: pIC50 (converted)); 34.9 µM in assay [4]; > 50 µM in [5]; > 50 µM in [6]. Also, the IC50 in assay [7] was > 50 µM; in assay [8], > 50 µM; in assay [9] it was > 50 µM; in [2], 3.3 µM; in assay [2] (read-out: pIC50 (converted)) it was 3.31 µM; in assay [10] it was > 50 µM. In addition, the IC50 in assay [11] was > 50 µM.

For the molecule `COc1ccc(NC(=S)N/N=C2\C(=O)N(C)c3ccccc32)cc1`, the IC50 is 19.6 µM in assay [1], 19.5 µM in [1] (read-out: pIC50 (converted)), 9.3 µM in assay [2] and 9.33 µM in assay [2] (read-out: pIC50 (converted)).

Turning to `COc1ccc(NC(=S)N/N=C2\CCc3ccccc32)cc1`, the IC50 in assay [1] and in [2] was > 50 µM in each case.

Turning to `COc1ccc(NC(=S)N/N=C2\C(=O)Nc3ccc(S(=O)(=O)O)cc32)cc1`, the IC50 in assay [1] and in [2] was > 50 µM in each case.

As for `NC(=S)N/N=C/c1ncccc1N` [TRIAPINE], the IC50 was 1.4 µM in [1], 1.41 µM in assay [1] (read-out: pIC50 (converted)), 5.9 µM in [2] and 5.89 µM in assay [2] (read-out: pIC50 (converted)).

For the molecule `NC(=S)/N=N/c1c(O)[nH]c2ccccc12`, the IC50 in [1] and in assay [2] was > 50 µM each time.

`C=CCNC(=S)N/N=C1\C(=O)Nc2ccc([N+](=O)[O-])cc21`: the IC50 was 17 µM in assay [1], 28.2 µM in [1] (read-out: pIC50 (converted)), 34.3 µM in assay [2] and 35.5 µM in assay [2] (read-out: pIC50 (converted)).

Consider `COc1ccc(NC(=S)N/N=C2\C(=O)Nc3c2ccc2ccccc32)cc1`, for which the IC50 was 4.4 µM in [1], 4.37 µM in [1] (read-out: pIC50 (converted)) and 30.3 µM in assay [2].

As to `COc1ccc(NC(=S)N/N=C/c2ccc(NC(C)=O)cc2)cc1`, the IC50 in [1] and in [2] was > 50 µM each time.

In the case of `COc1ccc(NC(=S)NN)cc1`, the IC50 in [1] and in assay [2] was > 50 µM each time.

On to `NC(=O)N/N=C1\C(=O)Nc2ccccc21`, for which the IC50 in assay [1] and in assay [2] was > 50 µM throughout.
